Assays:
[1] = Solubility was determined; assay type: physicochemical
[2] = Percent of the mice tested that exhibited toxicity after a dose of 150 mg/kg; assay type: organism-based; parameters: dose 150 mg/kg; conditions: mouse, in vivo

Work on `COc1ccc(/C=C\c2cc(OC)c(OC)c(OC)c2)cc1O.N` yielded a solubility [1] of ~2800 µg/mL.

For `COc1ccc(/C=C\c2cc(OC)c(OC)c(OC)c2)cc1[O-].[K+]`, the Activity [2] was 60%.

— ChEMBL document CHEMBL1129184, “Synthesis of water-soluble prodrugs of the cytotoxic agent Combretastatin A4” (Bioorg Med Chem Lett, 1996)
